Consider 27 compounds from US8258130B2 (Sanofi, priority 2007, dated 2012).

One may read the IC50 as the concentration needed to halve the response being measured. Read a high IC50 as weaker potency in that assay.

For this test, the target named is human h-PGDS (Homo sapiens, UniProt O60760). Put plainly: Enzyme Immunoassay (EIA) method, inhibition of hematopoietic PGD2 synthase. To be noted: EIA assay, PGD2 formed from PGH2 by human h-PGDS. It is filed as biochemical. The method, then:
Assay 2: Enzyme Immunoassay (EIA) Method
• a. Preparation of 0.1M K2HPO4/KH2PO4 buffer (pH 7.4) • Prepare 0.1 M KH2PO4 from 1M KH2PO4 (Sigma, Cat# P-8709) • Prepare 0.1 M K2HPO4 from powder of K2HPO4 (Fisher, BP363-500) • Mix 0.1 M K2HPO4 with 0.1 M KH2PO4 to adjust pH to 7.4. • b. Preparation of 0.5% γ-globulin • Add 0.1 g of γ-globulin (Sigma, Cat# G-5009) to 20 mL 0.1 M K2HPO4/KH2PO4 buffer (pH 7.4) and make 1-mL/vial aliquots and store in −80° C. • c. Preparation of 100 mM GSH • Add 307 mg of GSH (Sigma, Cat# G-6529) to 10 mL 0.1 M K2HPO4/KH2PO4 buffer (pH 7.4) and store at −80° C. • d. Preparation of Reaction buffer: • 198 mL of 0.1M K2HPO4/KH2PO4 buffer (pH 7.4) • 2 mM GSH—Prepared from 100 mM GSH • 0.4 g Glycerol • 2 mL of 0.5% γ-globulin • Add 0.4 g of glycerol and 2 mL of 0.5% γ-globulin to 198 mL of 0.1 M K2HPO4/KH2PO4 • buffer (pH7.4). • Add 0.4 mL of 100 mM GSH to 19.6 mL reaction buffer before the assay (enough for two 96-well plates). • e. Preparation of FeCl2/citric acid stopping solution: (8 mg/mL FeCl2, 0.1 M citric acid) • Add 40 mg fresh FeCl2 (IGN, Cat# 158046) to 5 mL 0.1 M citric acid (Sigma, Cat# C0759). • f. Preparation of MOX reagent: • 10% EtOH—Add 1 mL of EtOH to 9 mL of ultra pure H2O • Dissolve 0.1 g of methoxyl amine (Cayman, Cat# 400036/) in 10% EtOH (10 mL). • Add 0.82 g of sodium acetate (Cayman, Cat#400037) to MOX solution and dissolve. II. Materials and Method • Dimethylsulfoxide (DMSO; Sigma; Cat# D2650) • Prostaglandin D2-MOX express EIA kit (Caymen Chemical, Catalog No. 500151)
Before the assay, cool down 10 mL of acetone in polypropylene tubes and empty 96 well plates in ice. All the procedures except compound dilution are performed on ice.
• 1. Dilute compound in DMSO
• 2. Dilute 2 μL of each above concentration of compound to 38 μL of reaction buffer in 96-well plates and mix. IV. Enzyme and Substrate Solution Preparation • 1 Preparation of 0.39 ng/μL enzyme solution (0.35 ng/μL at final after compound addition). • Mix 4 μL of 4 mg/mL human h-PGDS with 396 μL of reaction buffer (to give enzyme concentration 40 μg/mL). Add 46.8 μL of 40 μg/mL h-PGDS to 4.753 mL of reaction buffer to give a total volume of 4.8 mL • 2. Preparation of Substrate Solution (PGH2): Add 0.375 mL of 0.1 mg/mL of PGH2 to 1.625 mL acetone. V. Enzyme Reaction: • 1. Add 60 μL of enzyme solution to compound well and positive control (without compound) in U-bottom polypropylene plate on ice. • 2. Add 60 μL of reaction buffer and 6.6 μL of 5% DMSO in reaction buffer into negative control wells in the plate. • 3. Add 6.6 μL of diluted compound in reaction buffer to the compound wells and mix. • 4. Add 6.6 μL of 5% DMSO in reaction buffer to the positive control well. • 5. Incubate the plate in ice for at least 30 min. • 6. Add 20 μL of substrate (PGH2) solution to compound, negative and positive control wells in the U-bottom 96 well plate on ice. • 7. Dry the plate in cold room for about 25-28 min. • 8. Pipette 45 μL of enzyme solution (above) into 96-wells with dried PGH2 and mix 3 times. Incubate on the ice for 1 min. • 9. Add 45 μL of FeCl2 solution into each wells and mix. • 10. Add 90 μL of MOX solution and mix. • 11. Incubate for 30 min at 60° C. • 12. Dilute the samples 2500× with EIA buffer. VI. EIA Assay • Perform the assay according to the procedure in EIA kit provided by Cayman. Total PGD2 levels (pg/mL) were determined in the samples by EIA kits (Caymen Chemical, Catalog No. 500151) Calculate Amount of PGD2 as Below • Calculated % Positive control according to the equation below; % Positive control=(Compound value−Negative control)/(Positive value−Negative control value)×100. […]

Chain of human h-PGDS (O60760 whole entry): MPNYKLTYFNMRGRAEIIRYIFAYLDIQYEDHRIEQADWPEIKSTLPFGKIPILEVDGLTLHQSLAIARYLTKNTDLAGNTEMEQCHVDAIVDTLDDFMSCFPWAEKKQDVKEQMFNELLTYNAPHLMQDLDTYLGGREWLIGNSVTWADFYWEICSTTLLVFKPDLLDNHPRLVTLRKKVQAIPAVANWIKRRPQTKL

`CC1Cc2ccccc2N1NC(=O)c1cnc(-c2cccc(F)c2)nc1` (stereo not drawn) [Example 100, 2-(3-Fluoro-phenyl)-pyrimidine-5-carboxylic acid (2-methyl-2,3-dihydro-indol-1-yl)-amide]: the IC50 was determined as 4 nM.
In the case of `O=C(Nn1ccc2cc(F)ccc21)c1cnc(-c2ccccc2)nc1` [Example 102, 2-Phenyl-pyrimidine-5-carboxylic acid (5-fluoro-indol-1-yl)-amide], the IC50 turned out to be 3 nM.
Next, `O=C(NN1CCc2ccccc21)c1cnc(-c2ccccn2)nc1` [Example 103, 2-Pyridin-2-yl-pyrimidine-5-carboxylic acid (2,3-dihydro-indol-1-yl)-amide]: 3 nM.
With `O=C(Nn1ccc2ccccc21)c1cnc(-c2ccccn2)nc1` [Example 104, 2-Pyridin-2-yl-pyrimidine-5-carboxylic acid indol-1-yl-amide], half-maximal inhibition (IC50) required 4.5 nM.
The figure for `O=C(Nn1ccc2ccccc21)c1cnc(-c2cccc(F)c2)nc1` [Example 105, 2-(3-Fluoro-phenyl)-pyrimidine-5-carboxylic acid indol-1-yl-amide] is 5 nM; for `Cc1nc(-c2cccc(F)c2)ncc1C(=O)NN1CCc2ccccc21` [Example 106, 2-(3-Fluoro-phenyl)-4-methyl-pyrimidine-5-carboxylic acid (2,3-dihydro-indol-1-yl)-amide] it is 23 nM.
The figure for `Cc1cc2ccccc2n1NC(=O)c1cnc(-c2cccc(F)c2)nc1` [Example 108, 2-(3-Fluoro-phenyl)-pyrimidine-5-carboxylic acid (2-methyl-indol-1-yl)-amide] is 6 nM.
Next, `Cc1nc(-c2cccc(F)c2)ncc1C(=O)Nn1ccc2ccccc21` [Example 109, 2-(3-Fluoro-phenyl)-4-methyl-pyrimidine-5-carboxylic acid indol-1-ylamide]: 10 nM; `Cc1nc(-c2ccccn2)ncc1C(=O)NN1CCc2ccccc21` [Example 110, 4-Methyl-2-pyridin-2-yl-pyrimidine-5-carboxylic acid (2,3-dihydro-indol-1-yl)-amide]: 3 nM.
As for `Cc1nc(-c2ccccn2)ncc1C(=O)Nn1ccc2ccccc21` [Example 111, 4-Methyl-2-pyridin-2-yl-pyrimidine-5-carboxylic acid indol-1-ylamide], 5 nM corresponded to half-maximal inhibition (IC50).
Next, `CS(=O)(=O)c1ccc2ccn(NC(=O)c3cnc(-c4cccc(F)c4)nc3)c2c1` [Example 113, 2-(3-Fluoro-phenyl)-pyrimidine-5-carboxylic acid (6-methanesulfonyl-indol-1-yl)-amide]: 8 nM; `O=C(Nn1ccc2ncccc21)c1cnc(-c2cccc(F)c2)nc1` [Example 118, 2-(3-Fluoro-phenyl)-pyrimidine-5-carboxylic acid pyrrolo[3,2-b]pyridin-1-ylamide]: 18 nM; `COc1ccccc1-c1ncc(C(=O)NN2CC(C)=NNC2=O)cn1` [Example 120, 2-(2-Methoxy-phenyl)-pyrimidine-5-carboxylic acid (6-methyl-3-oxo-2,5-dihydro-3H-[1,2,4]triazin-4-yl)-amide]: 199 nM.
Next, `Cc1nc(-c2cccc(F)c2)ncc1C(=O)Nn1ccc2cccnc21` [Example 122, 2-(3-Fluoro-phenyl)-4-methyl-pyrimidine-5-carboxylic acid pyrrolo[2,3-b]pyridin-1-ylamide]: 12 nM; `Cc1nc(-c2ccccn2)ncc1C(=O)Nn1ccc2cc(F)ccc21` [Example 123, 4-Methyl-2-pyridin-2-yl-pyrimidine-5-carboxylic acid (5-fluoro-indol-1-yl)-amide]: 17 nM.
Compound `O=C(Nn1ccc2cc(F)ccc21)c1cnc(-c2ccccn2)nc1` [Example 124, 2-Pyridin-2-yl-pyrimidine-5-carboxylic acid (5-fluoro-indol-1-yl)-amide] came in with an IC50 of 18 nM.
Next, `Cc1nc(-c2ccccn2)ncc1C(=O)Nn1ccc2ncccc21` [Example 127, 4-Methyl-2-pyridin-2-yl-pyrimidine-5-carboxylic acid pyrrolo[3,2-b]pyridin-1-ylamide]: 13 nM; `Cc1nc(-c2cccc(F)c2)ncc1C(=O)Nn1ccc2ccncc21` [Example 128, 2-(3-Fluoro-phenyl)-4-methyl-pyrimidine-5-carboxylic acid pyrrolo[2,3-c]pyridin-1-ylamide]: 28.5 nM.
Next, `Cc1nc(-c2cccnc2)ncc1C(=O)Nn1ccc2ncccc21` [Example 130, 4-Methyl-2-pyridin-3-yl-pyrimidine-5-carboxylic acid pyrrolo[3,2-b]pyridin-1-ylamide]: 14 nM; `Cc1nc(-c2cccc(F)c2)ncc1C(=O)Nn1ccc2cc(F)ccc21` [Example 132, 2-(3-Fluoro-phenyl)-4-methyl-pyrimidine-5-carboxylic acid (5-fluoro-indol-1-yl)-amide]: 19 nM.
Consider `COc1ccc2c(ccn2NC(=O)c2cnc(-c3cccc(F)c3)nc2C)c1` [Example 133, 2-(3-Fluoro-phenyl)-4-methyl-pyrimidine-5-carboxylic acid (5-methoxy-indol-1-yl)-amide], for which the IC50 was determined as 6 nM.
The figure for `CC1=NNC(=O)N(NC(=O)c2cnc(-c3cccc(O)c3)nc2)C1` [Example 154, 2-(3-Hydroxy-phenyl)-pyrimidine-5-carboxylic acid (6-methyl-3-oxo-2,5-dihydro-3H-[1,2,4]triazin-4-yl)-amide] is 21 nM; for `Cc1nc(-c2ncccn2)ncc1C(=O)Nn1cc(C)c2cc(F)ccc21` [Example 157, 4-Methyl-[2,2′]bipyrimidinyl-5-carboxylic acid (5-fluoro-3-methyl-indol-1-yl)-amide] it is 4.5 nM.
The figure for `Cc1nc(-c2cccc(F)c2)ncc1C(=O)Nn1cc(C(N)=O)c2cc(F)ccc21` [Example 162, 5-Fluoro-1-{[2-(3-fluoro-phenyl)-4-methyl-pyrimidine-5-carbonyl]-amino}-1H-indole-3-carboxylic acid amide] is 8 nM; for `Cc1nc(-c2cccc(F)c2)ncc1C(=O)Nn1cc(C(C)(C)C(=O)O)c2cc(F)ccc21` [Example 164, 2-(5-Fluoro-1-{[2-(3-fluoro-phenyl)-4-methyl-pyrimidine-5-carbonyl]-amino}-1H-indol-3-yl)-2-methyl-propionic acid] it is 7 nM; for `Cc1nc(-c2nccs2)ncc1C(=O)Nn1cc(CCC(C)(C)O)c2cc(F)ccc21` [Example 172, 4-Methyl-2-thiazol-2-yl-pyrimidine-5-carboxylic acid [5-fluoro-3-(3-hydroxy-3-methyl-butyl)-indol-1-yl]-amide] it is 5 nM.
Take `CCc1cn(NC(=O)c2cnc(-c3ncccn3)nc2C)c2ccc(C(F)(F)F)cc12` [Example 176, 4-Methyl-[2,2′]bipyrimidinyl-5-carboxylic acid (3-ethyl-5-trifluoromethyl-indol-1-yl)-amide]: the IC50 worked out at 8 nM. This IC50 lies about 1.6-fold higher than the previous one.
